Measurements: ChEMBL document CHEMBL1201862, “PubChem BioAssay data set” (2004)
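Test compounds were applied to cells in 96-well plates for 48 hours at 5 doses. At the GI50, growth is halved.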 The source made the active and inactive calls. Cut-off read from the data, not from the text of the source: active = GI50 up to about 1.1 µM and inactive = higher.

Key:
Assay in all cases: inhibition of tumour cell growth, NCI panel, 48 h
UACC-257 = system: UACC-257
786-0 = system: 786-0
HT-29 = system: HT-29
RPMI-8226 = system: RPMI-8226
MOLT-4 = system: MOLT-4
LOX IMVI = system: LOX IMVI
Hs-578T = system: Hs-578T
DU-145 = system: DU-145
SK-MEL-28 = system: SK-MEL-28
OVCAR-8 = system: OVCAR-8
OVCAR-3 = system: OVCAR-3
MDA-MB-231 = system: MDA-MB-231
EKVX = system: EKVX
UO-31 = system: UO-31
U-251 = system: U-251
OVCAR-5 = system: OVCAR-5
HL-60 = system: HL-60
Malme-3M = system: Malme-3M
MDA-MB-435 = system: MDA-MB-435
COLO 205 = system: COLO 205

SMILES | GI50 (UACC-257) | GI50 (786-0) | GI50 (HT-29) | GI50 (RPMI-8226) | GI50 (MOLT-4) | GI50 (LOX IMVI) | GI50 (Hs-578T) | GI50 (DU-145) | GI50 (SK-MEL-28) | GI50 (OVCAR-8) | GI50 (OVCAR-3) | GI50 (MDA-MB-231) | GI50 (EKVX) | GI50 (UO-31) | GI50 (U-251) | GI50 (OVCAR-5) | GI50 (HL-60) | GI50 (Malme-3M) | GI50 (MDA-MB-435) | GI50 (COLO 205)
COc1ccc2[nH]c(C(=O)N3CC(CCl)c4ccc([N+](=O)[O-])cc43)cc2c1 (stereo not given) | > 100 µM (inactive) | > 100 µM (inactive) | > 95.7 µM (inactive) | > 100 µM (inactive) | > 100 µM (inactive) | > 100 µM (inactive) | 37 µM (inactive) | > 100 µM (inactive) | > 100 µM (inactive) | > 80.9 µM (inactive) | > 100 µM (inactive) | > 23.4 µM (inactive) | 54.1 µM (inactive) | > 100 µM (inactive) | > 100 µM (inactive) | > 100 µM (inactive) | > 100 µM (inactive) | > 100 µM (inactive) | > 100 µM (inactive) | > 100 µM (inactive)
CC(=O)n1[nH]c(=O)n(-c2ccccc2)c1=O | > 100 µM (inactive) | > 100 µM (inactive) | > 100 µM (inactive) | > 100 µM (inactive) | > 100 µM (inactive) | > 100 µM (inactive) | > 100 µM (inactive) | > 100 µM (inactive) | > 100 µM (inactive) | > 100 µM (inactive) | > 100 µM (inactive) | > 100 µM (inactive) | > 100 µM (inactive) | > 100 µM (inactive) | > 100 µM (inactive) | > 100 µM (inactive) | > 100 µM (inactive) | > 100 µM (inactive) | > 100 µM (inactive) | > 100 µM (inactive)
Cc1ccc(S(=O)(=O)NNCNC(=O)c2ccccc2)cc1 | > 100 µM (inactive) | > 100 µM (inactive) | 61.2 µM (inactive) | 76 µM (inactive) | 24.2 µM (inactive) | 68.7 µM (inactive) | > 100 µM (inactive) | > 100 µM (inactive) | > 100 µM (inactive) | > 100 µM (inactive) | > 100 µM (inactive) | > 100 µM (inactive) | > 100 µM (inactive) | 82.8 µM (inactive) | > 100 µM (inactive) | > 100 µM (inactive) | 16.4 µM (inactive) | > 100 µM (inactive) | 32.4 µM (inactive) | > 100 µM (inactive)
O=c1[nH]c(=O)n(C2CC(O)C(CO)O2)cc1OCCc1ccccc1 (stereo not given) | > 100 µM (inactive) | > 100 µM (inactive) | > 100 µM (inactive) | > 100 µM (inactive) | > 100 µM (inactive) | > 100 µM (inactive) | > 100 µM (inactive) | > 100 µM (inactive) | > 100 µM (inactive) | > 100 µM (inactive) | > 100 µM (inactive) | > 100 µM (inactive) | > 100 µM (inactive) | > 100 µM (inactive) | > 100 µM (inactive) | > 100 µM (inactive) | > 100 µM (inactive) | > 100 µM (inactive) | > 100 µM (inactive) | > 100 µM (inactive)
O=c1cc(-c2ccccc2)[nH]c2ccc(N3CCCCC3)cc12 | 42.6 µM (inactive) | 0.0364 µM (active) | 0.0566 µM (active) | 0.0333 µM (active) | 0.0605 µM (active) | 0.0465 µM (active) | < 0.0152 µM (active) | 0.0468 µM (active) | 0.0267 µM (active) | 0.0462 µM (active) | 0.0166 µM (active) | 0.0501 µM (active) | > 100 µM (inactive) | > 10 µM (inactive) | 0.0171 µM (active) | 4.35 µM (inactive) | < 0.0126 µM (active) | > 100 µM (inactive) | < 0.01 µM (active) | 0.017 µM (active)
O=[N+]([O-])/C(C(Cl)=C(Cl)Cl)=C(/Sc1ccccc1)N1CCOCC1 | 9.91 µM (inactive) | 2.28 µM (inactive) | 6.15 µM (inactive) | 2.62 µM (inactive) | 2 µM (inactive) | 1.53 µM (inactive) | 15.6 µM (inactive) | 12.6 µM (inactive) | 4.74 µM (inactive) | 1.89 µM (inactive) | 2.69 µM (inactive) | 5.12 µM (inactive) | 9.75 µM (inactive) | 4.67 µM (inactive) | 10.5 µM (inactive) | 16.4 µM (inactive) | 1.99 µM (inactive) | 5.13 µM (inactive) | 2.59 µM (inactive) | 3.88 µM (inactive)
OCC(CCc1c[nH]c2ccccc12)c1c[nH]c2ccccc12 (stereo not given) | 11.6 µM (inactive) | 16 µM (inactive) | 17 µM (inactive) | 27 µM (inactive) | 14.5 µM (inactive) | 14.3 µM (inactive) | 20.8 µM (inactive) | 16.7 µM (inactive) | 20.5 µM (inactive) | 20.7 µM (inactive) | 27.3 µM (inactive) | 14.1 µM (inactive) | 14.7 µM (inactive) | 12.6 µM (inactive) | 16.7 µM (inactive) | 17.4 µM (inactive) | 8.95 µM (inactive) | 17 µM (inactive) | 18.4 µM (inactive) | 16.9 µM (inactive)
CC(C)(C)C1=NN=C2c3ccccc3C(=O)C21 (stereo not given) | 62.7 µM (inactive) | 99.5 µM (inactive) | 28.2 µM (inactive) | 32.1 µM (inactive) | 22.4 µM (inactive) | 41.1 µM (inactive) | 20.7 µM (inactive) | 31.3 µM (inactive) | 55.8 µM (inactive) | 43.6 µM (inactive) | 37.6 µM (inactive) | 40.4 µM (inactive) | 27.4 µM (inactive) | 4.78 µM (inactive) | 46.9 µM (inactive) | 51.8 µM (inactive) | 34.3 µM (inactive) | 36.2 µM (inactive) | 41.6 µM (inactive) | 37.8 µM (inactive)
